Data as given in PubChem BioAssay (NCI).
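GI50: concentration for 50% inhibition of growth. The concentration for full growth arrest is given as TGI.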

Experiments:
Test in all cases: DTP human tumour cell line panel, 384-well format
786-0 renal = tested on: 786-0 renal
A498 renal = tested on: A498 renal
A549 NSCLC = tested on: A549 NSCLC
ACHN renal = tested on: ACHN renal
BT-549 breast = tested on: BT-549 breast
CAKI-1 renal = tested on: CAKI-1 renal
CCRF-CEM leukemia = tested on: CCRF-CEM leukemia
COLO 205 colon = tested on: COLO 205 colon
DU-145 prostate = tested on: DU-145 prostate
EKVX NSCLC = tested on: EKVX NSCLC
HCC-2998 colon = tested on: HCC-2998 colon
HCT-15 colon = tested on: HCT-15 colon
HL-60(TB) leukemia = tested on: HL-60(TB) leukemia
HOP-62 NSCLC = tested on: HOP-62 NSCLC
HOP-92 NSCLC = tested on: HOP-92 NSCLC
HS 578T breast = tested on: HS 578T breast
HT29 colon = tested on: HT29 colon
IGROV1 ovarian = tested on: IGROV1 ovarian
KM12 colon = tested on: KM12 colon
M14 melanoma = tested on: M14 melanoma
MALME-3M melanoma = tested on: MALME-3M melanoma
MCF7 breast = tested on: MCF7 breast
MDA-MB-231 breast = tested on: MDA-MB-231 breast
MDA-MB-435 melanoma = tested on: MDA-MB-435 melanoma
MDA-MB-468 breast = tested on: MDA-MB-468 breast
MOLT-4 leukemia = tested on: MOLT-4 leukemia
NCI-H226 lung = tested on: NCI-H226 lung
NCI-H23 lung = tested on: NCI-H23 lung
NCI-H322M lung = tested on: NCI-H322M lung
NCI-H460 NSCLC = tested on: NCI-H460 NSCLC
NCI-H522 lung = tested on: NCI-H522 lung
NCI/ADR-RES ovarian = tested on: NCI/ADR-RES ovarian
OVCAR-3 ovarian = tested on: OVCAR-3 ovarian
OVCAR-4 ovarian = tested on: OVCAR-4 ovarian
OVCAR-5 ovarian = tested on: OVCAR-5 ovarian
OVCAR-8 ovarian = tested on: OVCAR-8 ovarian
PC-3 prostate = tested on: PC-3 prostate
RPMI-8226 leukemia = tested on: RPMI-8226 leukemia
RXF 393 renal = tested on: RXF 393 renal
SF-268 CNS = tested on: SF-268 CNS
SF-295 CNS = tested on: SF-295 CNS
SF-539 CNS = tested on: SF-539 CNS
SK-MEL-2 melanoma = tested on: SK-MEL-2 melanoma
SK-MEL-28 melanoma = tested on: SK-MEL-28 melanoma
SK-MEL-5 melanoma = tested on: SK-MEL-5 melanoma
SK-OV-3 ovarian = tested on: SK-OV-3 ovarian
SN12C renal = tested on: SN12C renal
SNB-19 CNS = tested on: SNB-19 CNS
SNB-75 CNS = tested on: SNB-75 CNS
SR leukemia = tested on: SR leukemia
SW-620 colon = tested on: SW-620 colon
T-47D breast = tested on: T-47D breast
TK-10 renal = tested on: TK-10 renal
U251 glioblastoma = tested on: U251 glioblastoma
UACC-257 melanoma = tested on: UACC-257 melanoma
UACC-62 melanoma = tested on: UACC-62 melanoma

## CC(=O)c1cc2c(o1)C(=O)c1ccccc1C2=O
786-0 renal
  GI50: 0.707 µM
  TGI: 2.04 µM
A498 renal
  GI50: 0.178 µM
  TGI: 0.318 µM
A549 NSCLC
  GI50: 0.176 µM
  TGI: 0.317 µM
ACHN renal
  GI50: 1.31 µM
  TGI: 2.59 µM
BT-549 breast
  GI50: 0.141 µM
  TGI: 0.272 µM
CAKI-1 renal
  GI50: 1.03 µM
  TGI: 2.21 µM
CCRF-CEM leukemia
  GI50: 0.357 µM
  TGI: 1.09 µM
COLO 205 colon
  GI50: 0.19 µM
  TGI: 0.336 µM
DU-145 prostate
  GI50: 0.137 µM
  TGI: 0.268 µM
EKVX NSCLC
  GI50: 0.363 µM
  TGI: 1.47 µM
HCC-2998 colon
  GI50: 0.16 µM
  TGI: 0.305 µM
HCT-15 colon
  GI50: 0.157 µM
  TGI: 0.294 µM
HL-60(TB) leukemia
  GI50: 0.202 µM
  TGI: 0.347 µM
HOP-62 NSCLC
  GI50: 0.0375 µM
  TGI: 0.133 µM
HOP-92 NSCLC
  GI50: 0.363 µM
  TGI: 1.39 µM
HS 578T breast
  GI50: 0.179 µM
  TGI: 0.319 µM
HT29 colon
  GI50: 0.175 µM
  TGI: 0.316 µM
IGROV1 ovarian
  GI50: 1.23 µM
  TGI: 2.49 µM
KM12 colon
  GI50: 0.299 µM
  TGI: 1.2 µM
M14 melanoma
  GI50: 0.168 µM
  TGI: 0.306 µM
MALME-3M melanoma
  GI50: 0.148 µM
  TGI: 0.28 µM
MCF7 breast
  GI50: 0.165 µM
  TGI: 0.305 µM
MDA-MB-231 breast
  GI50: 0.293 µM
  TGI: 1.2 µM
MDA-MB-435 melanoma
  GI50: 0.156 µM
  TGI: 0.291 µM
MDA-MB-468 breast
  GI50: 0.22 µM
  TGI: 0.565 µM
MOLT-4 leukemia
  GI50: 0.215 µM
  TGI: 0.437 µM
NCI-H226 lung
  GI50: 0.166 µM
  TGI: 0.303 µM
NCI-H23 lung
  GI50: 0.0332 µM
  TGI: 0.138 µM
NCI-H322M lung
  GI50: 0.177 µM
  TGI: 0.317 µM
NCI-H460 NSCLC
  GI50: 0.172 µM
  TGI: 0.314 µM
NCI-H522 lung
  GI50: 0.153 µM
  TGI: 0.289 µM
NCI/ADR-RES ovarian
  GI50: 0.215 µM
  TGI: 0.562 µM
OVCAR-3 ovarian
  GI50: 0.165 µM
  TGI: 0.315 µM
OVCAR-4 ovarian
  GI50: 0.156 µM
  TGI: 0.295 µM
OVCAR-5 ovarian
  GI50: 0.149 µM
  TGI: 0.283 µM
OVCAR-8 ovarian
  GI50: 0.236 µM
  TGI: 0.669 µM
PC-3 prostate
  GI50: 0.259 µM
  TGI: 1.14 µM
RPMI-8226 leukemia
  GI50: 0.132 µM
  TGI: 0.374 µM
RXF 393 renal
  GI50: 0.163 µM
  TGI: 0.326 µM
SF-268 CNS
  GI50: 0.234 µM
  TGI: 0.818 µM
SF-295 CNS
  GI50: 0.126 µM
  TGI: 0.255 µM
SF-539 CNS
  GI50: 0.159 µM
  TGI: 0.296 µM
SK-MEL-2 melanoma
  GI50: 0.269 µM
  TGI: 0.434 µM
SK-MEL-28 melanoma
  GI50: 0.186 µM
  TGI: 0.336 µM
SK-MEL-5 melanoma
  GI50: 0.0558 µM
  TGI: 0.178 µM
SK-OV-3 ovarian
  GI50: 1.03 µM
  TGI: 2.21 µM
SN12C renal
  GI50: 0.165 µM
  TGI: 0.309 µM
SNB-19 CNS
  GI50: 0.175 µM
  TGI: 0.322 µM
SNB-75 CNS
  GI50: 0.0341 µM
  TGI: 0.101 µM
SR leukemia
  GI50: 0.156 µM
  TGI: 0.295 µM
SW-620 colon
  GI50: 0.175 µM
  TGI: 0.367 µM
T-47D breast
  GI50: 0.198 µM
  TGI: 0.439 µM
TK-10 renal
  GI50: 1.1 µM
  TGI: 2.29 µM
U251 glioblastoma
  GI50: 0.194 µM
  TGI: 0.503 µM
UACC-257 melanoma
  GI50: 0.126 µM
  TGI: 0.254 µM
UACC-62 melanoma
  GI50: 0.168 µM
  TGI: 0.306 µM
